Structures can show the parent of a compound that is named as a salt.
system: SMN protein in SMA patient fibroblasts (GM03813); test: SMN cytoblot assay (SMN protein levels in SMA patient fibroblasts); type: cell-based, human; details: maximum signal-to-noise ratio log(T/U)/error among a compound's dose curves, SMN cytoblot; cutoff 6; column Scoring says Automated or Visual selection
Text: One method for monitoring SMN protein levels in cells is through use of a cytoblot assay, in which cells are fixed and probed with an antibody against a target protein of interest. We have used a cytoblot assay to determine the concentration of SMN protein in SMA patient fibroblasts, and have identified small molecules that increase SMN protein concentration.
Using the cytoblot assay, we can clearly distinguish SMN protein levels in patient (GM03813) versus carrier fibroblast cells (GM03814), as shown in the FIGS. 1A and 1B.
• 1. Plate 50 μl per well of 300,000 cells/ml (15,000 cells per well) into Nunc white 384-well opaque-bottomed plates. • 2. Incubate plates at 37° C., 5% CO2 overnight. Day 2 • 1. Aspirate media from wells using Tecan plate washer. • 2. Fix cells by adding 20 μl/well of cold methanol (kept in −20° C. freezer). • 3. Incubate plates in 4° C. refrigerator for 10 minutes. • 4. Aspirate methanol using Tecan plate washer. • 5. Add 50 μl/well of primary Ab solution, (BD anti-SMN Ab diluted to 125 ng/ml in 10% fetal goat serum PBST), using multi-drop. • 6. Seal plates and incubate overnight at room temperature. Day 3 • 1. After 16-20 hrs incubation, wash plates with PBST 2× using Tecan plate washer. • 2. Add 50 μl of secondary Ab solution, (Santa Cruz goat anti-Mouse-HRP diluted to 67 ng/ml in 10% fetal goat serum PBST). • 3. Seal plates and incubate 2 hrs at room temperature. • 4. Wash plates with PBST 2× using Tecan plate washer. • 5. Add 50 μl/well 10% fetal goat serum PBST. • 6. Incubate in 4° C. refrigerator for 10 minutes. • 7. Aspirate plates using plate washer and add ECL luminescence solution, 20 μl/well. • 8. Measure luminescence on plate reader. Automated Scoring
We scored each compound based on the maximum signal-to-noise ratio (SNR) found among its dose curves. These scores are based on edge-corrected SMN data, using only plates that passed quality control. The untreated level on each plate was found by taking the median of the untreated wells, and for each treated well we calculated a log(T/U) ratio. Each curve was generated in triplicate on each plate, so each point on a compound's dose curve was obtained by determining the median for the replicate points. Each ratio thus has an error estimate from the scatter between the triplicate data points (1.5 times the median absolute deviation from the median). For each dose curve, we calculated the SNR for each data point log(T/U)/error, and chose the maximum point as our indicator of SMN induction activity. Since this is a signal-to-noise score, scores much greater than one indicate significant activity, assuming normal statistics. We decided to use a cutoff signal-to-noise ratio of 6. This selection represents a considerable enrichment towards visually-selected compounds. We identified 100 out of 2000 compounds producing scores >6. This included 13 of the 28 visual selections.

Compound	SNR
COC(=O)[C@H]1[C@H]2C[C@@H]3c4[nH]c5cc(OC)ccc5c4CCN3C[C@H]2C[C@@H](OC(=O)/C=C/c2cc(OC)c(OC)c(OC)c2)[C@@H]1OC [Rescinnamine]	6.3
CC(O)CN1CCN(CC(=O)[O-])CCN(CC(=O)[O-])CCN(CC(=O)[O-])CC1.[Gd+3] (stereo not shown) [Gadoteridol]	6.54
CN(C)CCC(O)(c1ccccc1)c1ccccc1Cl (stereo not shown) [Chlophedianol Hydrochloride]	7.44
CCn1nc(C(=O)O)c(=O)c2cc3c(cc21)OCO3 [Cinoxacin]	6
CN(C)C(=O)Oc1ccc[n+](C)c1 [Pyridostigmine Bromide]	6.19
CC(C)NCC(O)COc1cccc2ccccc12 (stereo not shown) [Propranolol Hydrochloride]	7.38
C[C@H](CCC(=O)O)[C@H]1CC[C@H]2[C@@H]3[C@@H](O)C[C@@H]4C[C@H](O)CC[C@]4(C)[C@H]3CC[C@]12C [Ursodiol]	9.2
CC(C)(Oc1ccc(CCNC(=O)c2ccc(Cl)cc2)cc1)C(=O)O [Bezafibrate]	7.38
NC[C@@H]1O[C@H](O[C@H]2[C@@H](O)[C@H](O[C@@H]3[C@@H](O)[C@H](N)C[C@H](N)[C@H]3O[C@H]3O[C@H](CO)[C@@H](O)[C@H](O)[C@H]3N)O[C@@H]2CO)[C@H](N)[C@@H](O)[C@@H]1O [Paromomycin Sulfate]	11
CC(CCc1ccc(O)cc1)NCCc1ccc(O)c(O)c1 (stereo not shown) [Dobutamine Hydrochloride]	6.47
COc1ccc(CC(C)=O)cc1OC [3,4-Dimethoxyphenylacetone]	7.25
O=C1O[C@H]([C@@H](O)CO)C(O)=C1O [Ascorbic Acid]	6.29
NCCc1c[nH]c2ccc(O)cc12 [Serotonin]	6.15
CC1(C)S[C@@H]2[C@H](NC(=O)[C@H](NC(=O)N3CCNC3=O)c3ccccc3)C(=O)N2[C@H]1C(=O)O [Azlocillin Sodium]	6.7
CCOC(=O)[C@H](CCc1ccccc1)N[C@@H](C)C(=O)N1CCC[C@H]1C(=O)O [Enalapril]	6.77
NCC1(CC(=O)O)CCCCC1 [Gabapentin]	6.84
CC(C)(S)C(N)C(=O)O (racemic) [dl-Penicillamine]	9.63
CNC[C@H](O)c1ccc(O)c(O)c1 [Epinephrine Bitartrate]	8.26
CCc1cc(C(N)=S)ccn1 [Ethionamide]	14
CN(CC(=O)O)C(=N)N [Creatine]	8.34
CCCC(CCC)C(=O)O [Divalproex Sodium]	6.59
Chymopapain	6.83

From patent US20060286167A1, “Compositions and methods for the treatment of neurodegenerative diseases” (priority 2005, published 2006)
